The values below are quoted from earlier work in US20140141090A1, “Pharmaceutical Composition Comprising Opioid Agonist And Sequestered Antagonist” (priority 2011, published 2014).

Where a name gives a salt, the structure may show the parent alone. Read-outs that look alike come from different tables or passages of the source.

For data set [1] the following is noted: after oral administration.
Assay in data set [2]: not given
The source holds these as a separate data set.

Assay in data set [3]: not given
The source holds these as a separate data set.

[4] abbreviates: in comparison to a 15 mg dose of hydrocodone.

Regarding `COc1ccc2c3c1O[C@H]1[C@@H](O)C=C[C@H]4[C@@H](C2)N(C)CC[C@@]341` [codeine], the Equianalgesic dose under setting [4] is recorded as 90.0 mg.

Turning to `C[C@H]1[C@H]2Cc3ccc(O)cc3[C@]1(C)CCN2CC1CC1` [cyclazocine], the Duration of action in data set [1] is ~24 h.

On to `O=C1CC[C@@]2(O)[C@H]3Cc4ccc(O)c5c4[C@@]2(CCN3CC2CC2)[C@H]1O5` [hydrochloride salt of naltrexone, naltrexone hydrochloride], for which the Solubility in water result in data set [2] was “up to 100 mg/cc”.

Take `COc1ccc2c3c1O[C@H]1C(=O)CC[C@H]4[C@@H](C2)N(C)CC[C@]314` [hydrocodone]: the Equianalgesic dose under setting [4] is 15.0 mg.

With `CN1CC[C@]23CCCC[C@H]2[C@H]1Cc1ccc(O)cc13` [levorphanol], under setting [4], the Equianalgesic dose is 1.8 mg.

With `CCOC(=O)C1(c2ccccc2)CCN(C)CC1` [meperidine], under “in vivo”, the Equianalgesic dose was 135.0 mg.

Turning to `CCC(=O)C(CC(C)N(C)C)(c1ccccc1)c1ccccc1` (stereo not drawn) [methadone], the Equianalgesic dose under setting [4] is on record as 9.0 mg.

Take `CN1CC[C@]23c4c5ccc(O)c4O[C@H]2[C@@H](O)C=C[C@H]3[C@H]1C5` [morphine]: for the setting “in vivo”, the Equianalgesic dose was 27.0 mg.

On to `O=C1CC[C@@]2(O)[C@H]3Cc4ccc(O)c5c4[C@@]2(CCN3CC2CC2)[C@H]1O5` [naltrexone], for which the Duration of action in data set [1] was ~24 h. In addition, in data set [3], the Oral bioavailability was 5-40% and the “Time of absorption following oral administration” value is ≤ 1 h.

With `COc1ccc2c3c1OC1C(=O)CC[C@@]4(O)[C@@H](C2)N(C)CC[C@]314` (stereo partly drawn) [oxycodone, 4,5-epoxy-14-hydroxy-3-methoxy-17-methylmorphinan-6-one], the Equianalgesic dose under setting [4] is reported as 13.5 mg.
